Assay [1] relates to synthesis of LTB4 by rat glycogen-elicited polymorphonuclear leukocytes (PMN). Put plainly: inhibition of LTB4 synthesis by rat glycogen-elicited PMN (Example 72). In kind it is cell-based, rat (female Wistar). The conditions noted are these: Leukocyte; for inhibition at 10000 µM: at 10 mM, negative number denotes potentiation; for inhibition at 500 µM: at 0.5 mM. An excerpt:
This is especially true with respect to 5,12-diHETE, which is also denoted as LTB4 lsee Ford-Hitchinson, J. Roy. Soc. Med., 74, 831 (1981)]. Compounds which inhibit the PLA2 -mediated release of arachidonic acid thereby effectively prevent the oxidation of arachidonic acid to the various leukotriene products via the lipoxygenase cascade. Accordingly, the specificity of action of PLA2 inhibitors can be determined by the activity of test compounds in this assay, which measures the ability of compounds to inhibit the synthesis of LTB4 by rat glycogen-elicited polymorphonuclear leukocytes (PMN) in the presence of exogenous substrate.
The assay is carded out as follows:
(§1) Rat polymorphonuclear leukocytes (PMNs) are obtained from female Wistar rats (150-200 g) which receive an injection of 6% glycogen (10 ml i.p.). Rats are sacrificed 18-24 hours post injection by CO2 asphyxiation and the elicited cells are harvested by peritoneal lavage using physiological saline (0.9% NaC1). The exudate is centrifuged at 400 ×g for 10 minutes. The supernatant fluid is discarded and the cell pellet is resuspended to a concentration of 2.0×10^7 cells/mL in HBSS containing Ca^++ and Mg^++ and 10 mM L-cysteine.
(§2) To 1 mL aliquots of cell suspension, test drugs or vehicle are added, then preincubated at 37° C. for 10 minutes. A23187 (1 mM), [^3 H]-AA (3.0 mCi/mL) and unlabeled AA (1 mM) are then added and the samples are further incubated for 10 minutes. The reaction is terminated by centrifugation and pelleting cells. Supernatants are then analyzed by HPLC analysis on a 15 cm×4.6 mm ID supelcosil LC-18 (Supelco)(3M) column, using a two solvent system at a flow rate of 1.4 mL total flow as follows:
Gradient: (system is equilibrated with Solvent A)
Percent solvent changes are accomplished in a linear fashion.
Injections: […] of each supernatant is injected directly onto column and ^3 H arachidonic acid metabolites are monitored using an on-line radioactivity detector (Ramona, IN/U S, Fairfield, NJ).
Standards: 10^4 -2.0×10^4 dpm of eicosanoids of interest are injected in […] EtOH cocktail.
Co-chromatography with standard [^3 H] leukotriene B4 (LTB4) in medium of stimulated PMN exposed to drug is compared to that found in medium of stimulated cells exposed to no drug, generating percent inhibition.
Results are expressed as percent inhibition at a given compound dose or as an IC50 value.

For assay [2], the system named is cyclooxygenase (PGE2 synthesis) in rat polymorphonuclear leukocytes (PMN). In words: inhibition of PGE2 synthesis (cyclooxygenase) by rat glycogen-elicited PMN (Example 73). Type of assay: cell-based, rat (female Wistar). The settings on record: Leukocyte; for inhibition at 10000 µM: at 10 mM. On the procedure: as §1, §2
In this assay, the procedure of Example 72 is carried out as described. However, in order to determine cyclooxygenase activity, the samples are cochromatographed with authentic reference [^3 H]-PGE2.
The results be calculated as in Example 72 and presented below: […]

For assay [3], the target named is T1, human synovial fluid PLA2 (Homo sapiens, UniProt P14555).
T1 sequence (P14555 21-144): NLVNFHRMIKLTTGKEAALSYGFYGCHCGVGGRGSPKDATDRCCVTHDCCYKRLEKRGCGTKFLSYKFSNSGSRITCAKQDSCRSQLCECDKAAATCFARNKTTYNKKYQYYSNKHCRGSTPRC
Put plainly: in vitro isolated phospholipase A2 assay, human synovial fluid PLA2 (Example 74). Further details: inhibition / % Inhibition, HSF (human synovial fluid): dose or concentration left out as unconfirmed. In kind it is biochemical. The settings on record: for IC50: Table III, read-out: IC50 HSF (human synovial fluid); for inhibition: read-out: % Inhibition, HSF (human synovial fluid). On the procedure: (§3) The compounds of the invention are tested in an in vitro isolated phospholipase A2 assay to determine the ability of the test compounds to inhibit the release of arachidonic acid from an arachidonic acid-containing substrate by the action of phospholipase A2 enzyme from human and non-human sources.
(§4) This assay is carried out as follows:
(§5) Into a 15 mL polypropylene tube are added the following:
(§6) ^6 Two human PLA2 enzymes are used:
b) Purified human synovial fluid.
(§7) Incubate the 100mL reaction mixture for 10 minutes at 37° C. in a shaking water bath. The reaction is terminated by the addition of 2 mL tetrahydrofuran, followed by vortexlag. NH2 columns (100 mg/mL--Analytichem International) are conditioned with 0.5 mL tetrahydrofuran followed by 0.5 mL tetrahydrofuran/water (2 mL:0.1 mL, v/v).
(§8) The sample is loaded onto the columns and slowly drawn through them. The hydrolyzed arachidonic acid retained in the columns is eluted therefrom with 1 mL tetrahydrofuran/glacial acetic acid (2%). The arachidonic acid is transferred to scintillation vials and quantitated by b-counting analysis. A "total counts" sample is prepared by pipetting […] ^3 H-arachidonate E. coli directly into a scintillation vial to which is added 1 mL tetrahydrofuran. 10 mL aquasol (scintillation cocktail) is added to all samples. [formula]

In a further assay the target is T2, human platelet PLA2 (Homo sapiens, UniProt P14555).
T2 construct: Semi-purified human platelet acid extract PLA2; from tissue; host or cells: human platelets (semi-purified acid extract)
T2 sequence (P14555 21-144): T1 sequence (P14555 21-144)
Put plainly: in vitro isolated phospholipase A2 assay, human platelet PLA2 (Example 74). The settings on record: read-out: % Inhibition, HP (human platelet). Type of assay: biochemical. Further details: dose or concentration left out as unconfirmed. The method, then: as §3, §4, §5, §6
a) Semi-purified human platelet acid extract PLA2 (in 10 mM
sodium acetate buffer, pH 4.5). Remove protein precipitate by
centrifugation at about 2200 rpm for 10 minutes.
as §7, §8

For assay [4], the system named is 5-lipoxygenase in human whole blood. Put plainly: inhibition of 5-lipoxygenase in human whole blood (Example 79). In kind it is cell-based. The settings on record: 25 μM. On the procedure:
The assay of this Example measures the ability of the compounds tested to inhibit 5-lipoxygenase in human whole blood.
as §4
Blood is obtained in 50-100 ml quantities from male donors. White blood cell counts and differentials are made. Two ml of blood are placed in a 15 ml polypropylene test tube. Compounds are solubilized in dimethylsulfoxide and diluted 1:10 in 10% bovine serum albumin in phosphate buffered saline, pH 7.4 resulting in a final dimethylsulfoxide concentration of 0.1% in the blood. Then, compounds are added to the blood in a shaking water bath at 37° C. for 10 minutes prior to the addition of […] calcium ionophore (A23187; Sigma). After ionophore administration, whole blood samples are mixed and incubated for 20 minutes at 37° C. in a shaking water bath. Incubation is terminated by placing samples in an ice bath and immediately adding ethylene glycol-bis-(b-aminoethyl ether)-N,N,N',N'-tetraacetic acid (10 mM). Samples are mixed and centrifuged at 1200 × g for 15 minutes at 4° C. Preparation of samples for evaluation by RIA or ELISA is carried out by the following protocol. Plasma is removed from sample tubes, placed in 15 ml polypropylene test tubes containing 8 ml methanol, and then vortexed to precipitate protein. Samples are stored at -70° C. overnight. The next day, samples are centrifuged at 200 × g for 15 minutes at 4° C. to pellet the precipitate. Samples are dried in a Savant speed vac concentrator, reconstituted to original volume with ice cold RIA or ELISA buffer, and stored at -70° C. until assayed. The assay for eicosanoids (LTB4, T×B2, and PGE2) is performed as described by the manufacturer of the [^3 H]-RIA kit or ELISA kit (LTB4 -Amersham, TxB2 and PGE2 - Caymen Chemical).
The total eicosanoid level in 2 ml of blood is calculated and reported as ng/10^6 neutrophils. […] Drug effects are expressed as percent change from control values.
Compounds tested in vitro are solubilized in dimethylsulfoxide and diluted 1:10 in 10% bovine serum albumin in phosphate buffer saline resulting in a final dimethylsulfoxide concentration of 0.1% i n the blood.

Setting [5] is: * (negative) denotes a potentiation, read-out: % Inhibition (PGE2 synthesis).
Setting [6] is: read-out: % Inhibition (PGE2 synthesis), symbol only.

Experimental findings from patent US5420289A, “Substituted indole-, indene-, pyranoindole- and tetrahydrocarbazole-alkanoic acid derivatives as inhibitors of PLA2 and lipoxygenase” (American Home Products Corporation, priority 1993, dated 1995) are described below.

Where a name gives a salt, the structure may show the parent alone. Read-outs that look alike come from different tables or passages of the source.

One may read the inhibition as the change of the read-out against control, counted positive when it falls. As for `CCc1cc(OCc2ccc3ccccc3n2)cc2c3c([nH]c12)C(CC)(CC(=O)O)OCC3` (centres unmarked) [Example 8, 1,8-Diethyl-1,3,4,9-tetrahydro-6-(2-quinolinylmethoxy)pyrano[3.4-b]indole-1-acetic acid], the inhibition at 10000 µM was 91% in assay [1] and 47% in assay [2] (setting [5]).
What is called IC50 is the concentration needed to halve the response being measured. On to `CCCCCn1c(C)c(CC(=O)O)c2cc(OCc3ccc4ccccc4n3)ccc21` [Example 29, 2-Methyl-1-pentyl-5-(2-quinolinylmethoxy)-1H-indole-3-acetic acid hemihydrate], for which the inhibition at 10000 µM in assay [1] is 88%. Besides, the inhibition at 10000 µM in assay [2] (setting [5]) was -123%. In addition, in assay [3], the IC50 was 15.5 µM and the inhibition worked out at 53%.
For the molecule `Cc1c(CC(N)=O)c2cc(OCc3nc4ccccc4s3)ccc2n1Cc1ccc(Cl)cc1` [Example 45, 5-(2-Benzothiazolylmethoxy)-1-[(4-chlorophenyl)methyl]-2-methyl-1H-indole-3-acetamide], the inhibition at human platelet PLA2 is 33%; in assay [3], 23%.
In the case of `CC1=C(CC(=O)O)c2cc(F)ccc2/C1=C\c1ccc([S+](C)[O-])cc1` (centres unmarked) [sulindac, reference compound], the figures for the inhibition at 10000 µM in assay [1] and in assay [2] (setting [5]) were -10% and 23%, respectively.
Consider `CCCCCCn1c(C)c(CC(=O)O)c2cc(OCc3ccc4ccccc4n3)ccc21` [Example 30, 1-Hexyl-2-methyl-5-(2-quinolinylmethoxy)-1H-indole-3-acetic acid three quarters hydrate], for which the inhibition at 10000 µM in assay [1] stood at 90%. Further, in assay [2] (setting [5]), the inhibition at 10000 µM was -130%. In addition, in assay [3], the half-maximal inhibitory concentration (IC50) amounted to 16.4 µM and the inhibition amounted to 46%.
For `Cc1c(CC(=O)O)c2cc(OCc3ccc4ccccc4n3)ccc2n1Cc1ccc(Cl)cc1` [Example 16, 1-[(4-Chlorophenyl)methyl]-2-methyl-5-(2-quinolinylmethoxy)-1H-indole-3-acetic acid hydrochloride quarter hydrate], the inhibition at 10000 µM in assay [1] was 96%. Besides, the inhibition at 10000 µM in assay [2] (setting [6]) is under 0%. Also, in assay [3], the IC50 turned out to be 4.1 µM and the inhibition was 46%. The “% Inhibition of LTB4” value in assay [4] is reported as 18%.
Turning to `COC(=O)Cc1c(C)n(Cc2ccc(Cl)cc2)c2ccc(OCc3ccc4ccccc4n3)cc12` [Example 16C, 1-[(4-Chlorophenyl)methyl]-2-methyl-5-(2-quinolinylmethoxy)-1H-indole-3-acetic acid methyl ester], the inhibition at 500 µM in assay [1] was 88%. In addition, the inhibition at 10000 µM in assay [2] (setting [6]) was under 0%.
For the molecule `CC(C(=O)O)c1ccc2c3cc(OCc4ccc5ccccc5n4)ccc3n(Cc3ccc4ccccc4n3)c2c1` (centres unmarked) [Example 21, a-Methyl-6-(2-quinolinylmethoxy)-9-(2-quinolinylmethyl)-9H-carbazole-2-acetic acid], the inhibition at 10000 µM in assay [1] is 92%; in assay [2] (setting [5]) it was -94%.
On to `Cc1c(CC(=O)O)c2cc(OCc3ccc4ccccc4n3)ccc2n1Cc1ccccc1` [Example 26, 1-[(Phenyl)methyl-2-methyl]-5-(2-quinolinylmethoxy)-1H-indole-3-acetic acid tenth hydrate], for which the inhibition at 10000 µM in assay [1] is 85%. In addition, the inhibition at 10000 µM in assay [2] (setting [5]) was -125%. In assay [3], the half-inhibitory concentration (IC50) came to 2.6 µM and the inhibition was found to be 92%.
For the molecule `COC(=O)Cc1c(C)n(C(=O)c2ccc(Cl)cc2)c2ccc(OCc3ccc4ccccc4n3)cc12` [Example 17A, 1-(4-Chlorobenzoyl)-2-methyl-5-(2-quinolinylmethoxy)-1H-indole-3-acetic acid methyl esterone tenth hydrate], the inhibition at 10000 µM in assay [1] was determined as 96%; in assay [2] (setting [5]) it was 50%.
In the case of `Cc1c(CC(=O)O)c2cc(OCc3ccc4ccccc4n3)ccc2n1C(=O)c1ccc(Cl)cc1` [Example 17, 1-(4-Chlorobenzoyl)-2-methyl-5-(2-quinolinylmethoxy)-1H-indole-3-acetic acid three quarters hydrate], in assay [1], the inhibition at 500 µM worked out at 46%. Also, the inhibition at 500 µM in assay [2] (at 0.5 mM, * (negative) denotes a potentiation) stood at 60%. Moreover, in assay [3], the half-inhibitory concentration (IC50) amounted to 14.9 µM and the inhibition stood at 58%.
In the case of `Cc1c(CC(=O)O)c2cc(OCc3ccc4ccccc4n3)ccc2n1Cc1ccc(Br)cc1` [Example 25, 1-[(4-Bromophenyl)methyl]-2-methyl-5-(2-quinolinylmethoxy)-1H-indole-3-acetic acid hemihydrate], the inhibition at 10000 µM was 93% in assay [1] and -67% in assay [2] (setting [5]). In addition, the inhibition in assay [3] was determined as 11%.
In the case of `CC(C(=O)O)c1ccc2c(c1)[nH]c1ccc(Cl)cc12` (centres unmarked) [carprofen, reference compound], the inhibition at 10000 µM is -10% in assay [1] and 83% in assay [2] (setting [5]).
For the molecule `Cc1c(CC(=O)O)c2cc(OCc3ccc4ccccc4n3)ccc2n1Cc1ccc(F)cc1` [Example 24, 1-[(4-Fluorophenyl)methyl]-2-methyl-5-(2-quinolinylmethoxy)-1H-indole-3-acetic acid hemihydrate], the inhibition at 10000 µM was 97% in assay [1] and -126% in assay [2] (setting [5]). Also, the inhibition in assay [3] turned out to be 56%.
